Source: ChEMBL document CHEMBL1156876, “Design and study of peptide-based inhibitors of amylin cytotoxicity” (Bioorg Med Chem Lett, 2010)
Non-standard residues stand in square brackets, D forms with d. Residues, ends and D or L forms follow the SMILES beside them. NMeH = CN[C@@H](Cc1c[nH]cn1)C(=O)O; NMeF = CN[C@@H](Cc1ccccc1)C(=O)O; NMeI = CC[C@H](C)[C@H](NC)C(=O)O; NMeT = CN[C@H](C(=O)O)[C@@H](C)O; NMeN = CN[C@@H](CC(N)=O)C(=O)O; NMeL = CN[C@@H](CC(C)C)C(=O)O; NMeV = CN[C@H](C(=O)O)C(C)C; NMeS = CN[C@@H](CO)C(=O)O; NMeA = CN[C@@H](C)C(=O)O; Sar = CNCC(=O)O

Columns and labels:
[1] = Cytotoxicity against rat RIN5F cells at 225 uM; assay type: cell-based
[2] = Inhibition of amylin-induced cytotoxicity in rat RIN5F cells at 225 uM after 24 hrs by MTT assay relative to control; assay type: functional; design: scale not given: the % may be the effect or the level left

| Compound | Activity [1] | Activity [2] |
| --- | --- | --- |
| CC[C@H](C)[C@@H](C(=O)N(C)[C@@H](CC(C)C)C(N)=O)N(C)C(=O)[C@H](C)N(C)C(=O)CN(C)C(=O)[C@H](Cc1ccccc1)N(C)C(=O)[C@@H](N)CC(N)=O (H-N[NMeF][Sar][NMeA][NMeI][NMeL]-NH2) | Non-toxic |  |
| H-FLVHSS-NH2 | Non-toxic | 20% |
| H-STNVGS-NH2 | Non-toxic | 18% |
| CC(C)C[C@@H](C(=O)N(C)[C@@H](C)C(N)=O)N(C)C(=O)[C@H](CCCNC(=N)N)N(C)C(=O)[C@H](CCC(N)=O)N(C)C(=O)[C@@H](N)[C@H](C)O | Non-toxic |  |
| C[C@@H](O)[C@@H](C(=O)N(C)[C@@H](C)C(=O)N(C)[C@H](C(N)=O)[C@@H](C)O)N(C)C(=O)[C@@H](N)CC(N)=O (H-N[NMeT][NMeA][NMeT]-NH2) | Non-toxic |  |
| CC(C)[C@@H](C(=O)N(C)CC(=O)N(C)[C@@H](CO)C(N)=O)N(C)C(=O)[C@H](CC(N)=O)N(C)C(=O)[C@H]([C@@H](C)O)N(C)C(=O)[C@@H](N)CO (H-S[NMeT][NMeN][NMeV][Sar][NMeS]-NH2) | Non-toxic |  |
| H-NFGAIL-NH2 | Non-toxic | 50% |
| CC(C)C[C@@H](C(=O)N(C)[C@H](C(=O)N(C)[C@@H](Cc1cnc[nH]1)C(=O)N(C)[C@@H](CO)C(=O)N(C)[C@@H](CO)C(N)=O)C(C)C)N(C)C(=O)[C@@H](N)Cc1ccccc1 (H-F[NMeL][NMeV][NMeH][NMeS][NMeS]-NH2) | Non-toxic |  |
| H-TQRLA-NH2 | Non-toxic | 50% |
| C[C@H](NC(=O)[C@@H](NC(=O)[C@@H](N)CC(N)=O)[C@@H](C)O)C(=O)N[C@H](C(N)=O)[C@@H](C)O (H-NTAT-NH2) | Non-toxic | 25% |
